One experiment has as its system CXCR4 L41A. Put plainly: 12G5 antibody competition, 293T cells transfected with CXCR4 L41A. The settings on record: IC50 on CXCR4 L41A relative to wt. The experiment is classed as binding, human. The method, then: (§1) Fig. 4 The interactions of EPI-X4 and the EPI-X4 derivatives WSC02 and JM#21 with point-mutated CXCR4 were assessed by an antibody competition assay. Amino acid substitutions were introduced in the sequence of CXCR4 by site-directed mutagenesis, cloned into an IRES-eGFP expression vector, and transfected into 293 T cells. Afterward, cells were incubated with serially diluted EPI-X4 (a, b), WSC02 (c, d), or JM#21 (e, f) in presence of a constant concentration of CXCR4 specific antibody (clone 12G5). After 2 h, bound antibody was analyzed by flow cytometry. a, c, e) Representative dose-dependent replacement of 12G5 antibody by peptides. b, d, f) IC50 values were calculated by nonlinear regression. Shown are data derived from at least three individual experiments ± SEM. IC50 values were set to 1000 µM (EPI-X4 and WSC02) or 100 µM (JM#21) if the value exceeds the maximally used concentration. *p ≤ 0.05, ***p ≤ 0.001 (one-way ANOVA for comparison with wt). For IC50 values see Table 1. For all binding curves see also Fig. S8.
(§2) Mutated CXCR4 constructs were transfected into 293 T cells that have a very low endogenous expression level of wild-type CXCR4. Transfected cells were then analyzed for CXCR4 surface expression (Fig. S5a) and EPI-X4 binding using a flow cytometry-based antibody competition assay (Fig. S5b, c)[33]. […]

For experiment [1], the system named is CXCR4 D97E + V112A + L41A. Put plainly: 12G5 antibody competition, 293T cells transfected with CXCR4 D97E + V112A + L41A. It is filed as binding, human. The settings on record: IC50 on CXCR4 D97E + V112A + L41A relative to wt. The method, then: as §1, §2
In a further experiment the test system is CXCR4 V112A + L41A. Nature of the experiment: 12G5 antibody competition, 293T cells transfected with CXCR4 V112A + L41A. The settings on record: IC50 on CXCR4 V112A + L41A relative to wt. It is filed as binding, human. The method, then: as §1, §2
The test system of a further experiment is CXCR4 D97E + V112A. Nature of the experiment: 12G5 antibody competition, 293T cells transfected with CXCR4 D97E + V112A. The experiment is classed as binding, human. The settings on record: IC50 on CXCR4 D97E + V112A relative to wt. The method, then:
as §1, §2

Another experiment relates to CXCR4 D187E. Nature of the experiment: 12G5 antibody competition, 293T cells transfected with CXCR4 D187E. The settings on record: IC50 on CXCR4 D187E relative to wt. The experiment is classed as binding, human. The method, then:
as §1, §2

For a further experiment, the system named is CXCR4 D97T. Nature of the experiment: 12G5 antibody competition, 293T cells transfected with CXCR4 D97T. The experiment is classed as binding, human. The settings on record: IC50 on CXCR4 D97T relative to wt. The method, then:
as §1, §2

The target in experiment [2] is T1, C-X-C motif chemokine receptor 4 (CXCR4) on SupT1 cells (human (endogenous in SupT1), UniProt P61073 1-352).
T1 construct: CXCR4 as expressed on SupT1 cells; source: endogenous, on SupT1 cells
Nature of the experiment: flow cytometry on cells; 12G5 antibody competition on SupT1 cells; peptides in PBS with APC-conjugated 12G5 at a concentration close to its EC50, 4 °C, 2 h; MFI normalized to PBS control; IC50 by nonlinear regression. The settings on record: one partner purified. A general note: In flow cytometry, cells or beads pass a laser one at a time.

T1 sequence (P61073 whole entry): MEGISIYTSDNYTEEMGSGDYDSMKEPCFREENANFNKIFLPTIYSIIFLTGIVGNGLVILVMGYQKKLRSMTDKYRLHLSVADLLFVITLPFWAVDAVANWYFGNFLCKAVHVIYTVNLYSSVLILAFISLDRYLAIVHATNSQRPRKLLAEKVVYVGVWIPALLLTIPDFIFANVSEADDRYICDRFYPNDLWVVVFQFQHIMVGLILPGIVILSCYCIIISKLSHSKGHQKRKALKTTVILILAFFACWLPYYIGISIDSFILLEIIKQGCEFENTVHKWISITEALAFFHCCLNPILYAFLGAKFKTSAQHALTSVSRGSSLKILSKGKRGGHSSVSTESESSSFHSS

For “IVRWSKKVPCVS [WSC02, first-generation C-terminally truncated 12-mer derivative of EPI-X4 with four substitutions]”, the Fold change with CXCR4 L41A is recorded as 1.5; in experiment [1] it was 5; with CXCR4 V112A + L41A it was 4; in the experiment with CXCR4 D97E + V112A it was 1.5; in the experiment with CXCR4 D187E, 0.4; in the experiment with CXCR4 D97T, 31.

B1: EPI-X4 (Alb408-423) (peptide)
peptide: LVRYTKKVPQVSTPTL
notes: source: synthetic peptide (Fmoc solid-phase synthesis, HPLC-purified)
Broadly, the IC50 is the concentration needed to halve the response being measured. The low end stands for higher potency, the high end for lower potency. The molecule B1 had a half-inhibitory concentration (IC50) in experiment [2] of 2390 nM.

These data come from article PMC8458281, “Computational modeling and experimental validation of the EPI-X4/CXCR4 complex allows rational design of small peptide antagonists” (Communications Biology, 2021).
